# Values joined by “and” are separate entries in the source; they are usually repeats but may differ in a detail not shown here. Equal entries are not always repeated. Where two headings read alike, the source gives them in different places.
# Key:
# Src kinase = Src kinase (Homo sapiens, UniProt P12931); assay: Z'-LYTE kinase inhibition, Src; details: for IC50: Table 4; for IC50 of compound Kinase/IC50 of compound Yes: Src relative to Yes
# Ret kinase = Ret kinase (Homo sapiens, UniProt P07949); assay: Z'-LYTE kinase inhibition, Ret; details: for IC50: Ret IC50 (nM), Table 4; for IC50 of compound Kinase/IC50 of compound Yes: Ret relative to Yes
# Yes = Yes (Homo sapiens, UniProt P07947); assay: Z'-LYTE kinase inhibition, Yes; details: for IC50 of compound Kinase/IC50 of compound Yes: Yes relative to Yes
# [1] = tested on: panel of tyrosine kinases; assay: Kinase inhibitor profiling across a panel of tyrosine kinases, selectivity score; type: biochemical
# Method: To analyze each analog's selectivity across the panel, selectivity scores were used (Davis et al., Nat. Biotechnol. 2011, 29, 1046-51), which are simply the number of kinases inhibited above a certain threshold divided by the number of kinases evaluated. […] For example at 1000 nM 2e-(R) yielded an S(40%) of 0.11 while 2e-(S) gave an S(40%) of 0.16. […] Differences in selectivity between 2e-(R) and 2e-(S) at 5000 nM (4.5 times the IC50 of 2e-(S) toward Src) and for 5 at 1000 nM (6.25 times the IC50 of 5 toward Src) can be viewed graphically across tyrosine kinases (FIG. 3). Importantly, similar trends were also observed across each of the atropisomeric series tested.
# All samples were sent out to Life Technologies to obtain kinase inhibition data. A brief description of the assays and analyses are included below.
# Assay Theory (SelectScreen® Kinase Profiling Services (Life Technologies, Madison, Wis. USA). The Z′-LYTE® biochemical assay employs a fluorescence-based, coupled-enzyme format and is based on the differential sensitivity of phosphorylated and non-phosphorylated peptides to proteolytic cleavage. The peptide substrate is labeled with two fluorophores—one at each end—that make up a FRET pair.
# In the primary reaction, the kinase transfers the gamma-phosphate of ATP to a single tyrosine, serine or threonine residue in a synthetic FRET-peptide. In the secondary reaction, a site-specific protease recognizes and cleaves non-phosphorylated FRET-peptides. Phosphorylation of FRET-peptides suppresses cleavage by the Development Reagent. Cleavage disrupts FRET between the donor (i.e., coumarin) and acceptor (i.e., fluorescein) fluorophores on the FRET-peptide, whereas uncleaved, phosphorylated FRET-peptides maintain FRET. A ratiometric method, which calculates the ratio (the Emission Ratio) of donor emission to acceptor emission after excitation of the donor fluorophore at 400 nm, is used to quantitate reaction progress, as shown in the equation below: […]
# A significant benefit of this ratiometric method for quantitating reaction progress is the elimination of well-to-well variations in FRET-peptide concentration and signal intensities. […] Both cleaved and uncleaved FRET-peptides contribute to the fluorescence signals and therefore to the Emission Ratio. The extent of phosphorylation of the FRET-peptide can be calculated from the Emission Ratio. The Emission Ratio will remain low 1f the FRET-peptide is phosphorylated (i.e., no kinase inhibition) and will be high if the FRET-peptide is non-phosphorylated (i.e., kinase inhibition).
# Both cleaved and uncleaved FRET-peptides contribute to the fluorescence signals and therefore to the Emission Ratio. The extent of phosphorylation of the FRET-peptide can be calculated from the Emission Ratio. The Emission Ratio will remain low if the FRET-peptide is phosphorylated (i.e., no kinase inhibition) and will be high if the FRET-peptide is non-phosphorylated (i.e., kinase inhibition).
# EGFR = EGFR (Homo sapiens, UniProt P00533); assay: Z'-LYTE kinase inhibition, EGFR; details: EGFR relative to Yes
# Abl = Abl (Homo sapiens, UniProt P00519); assay: Z'-LYTE kinase inhibition, Abl; details: for IC50 of compound Kinase/IC50 of compound Yes: Abl relative to Yes
# [2] = Experimental measurement of the barriers to rotation (racemization followed by chiral HPLC); type: physicochemical; details: for kobs: observed rate constant of racemization in ethanol at the heating temperature (not given), in s^-1
# Method: Enantiomerically enriched atropisomeric pyrrolopyrimidine analogues were isolated via chiral HPLC (Daicel Chiralpak IA PN:80335, 3 mL/min, 80:20 or 50:50 hexanes:ethanol, 25° C.) and evaporated in vacuo. The enantiomerically enriched analogues were then dissolved in ethanol and placed in a sealed 2-dram vial and heated under constant temperature on an aluminum block. At each time point, an aliquot of the mixture was removed and quenched in an HPLC vial containing ice cold 80:20 hexanes:ethanol. Each sample was then injected into the chiral HPLC system (Daicel Chiralpak IA PN:80325, 1 mL/min, 80:20 or 50:50 hexanes:ethanol, 25° C.) and enantiomeric excess (ee) measured. The timepoint and enantiomeric excess (ee) data was then plotted in order to determine an observed rate constant, kobs, at the corresponding temperature. The barrier to rotation was then calculated using the relationship of kracemization=2*kenantiomenzation and then substituted into the Gibbs Free Energy Equation:
# [formula] where h=Planck Constant, kb=Boltzmann Constant, T=Temp. (K), R=Gas Constant.
# Yes, sequence (P07947 whole entry): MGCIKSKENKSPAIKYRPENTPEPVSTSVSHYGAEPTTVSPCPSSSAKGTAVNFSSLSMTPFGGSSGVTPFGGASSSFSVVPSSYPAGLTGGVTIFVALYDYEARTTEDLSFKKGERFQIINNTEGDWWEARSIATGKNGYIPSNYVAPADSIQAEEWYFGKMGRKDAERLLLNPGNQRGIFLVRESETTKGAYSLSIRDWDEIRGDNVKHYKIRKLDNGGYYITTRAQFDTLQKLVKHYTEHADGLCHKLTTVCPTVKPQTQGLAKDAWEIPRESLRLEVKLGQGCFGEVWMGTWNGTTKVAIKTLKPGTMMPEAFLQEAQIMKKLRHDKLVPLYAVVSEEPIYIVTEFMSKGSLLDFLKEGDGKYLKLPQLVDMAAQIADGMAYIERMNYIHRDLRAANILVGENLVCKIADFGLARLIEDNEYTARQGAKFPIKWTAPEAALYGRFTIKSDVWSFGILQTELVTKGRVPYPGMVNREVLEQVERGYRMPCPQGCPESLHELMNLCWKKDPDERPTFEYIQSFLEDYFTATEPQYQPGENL
# EGFR, sequence (P00533 25-1210): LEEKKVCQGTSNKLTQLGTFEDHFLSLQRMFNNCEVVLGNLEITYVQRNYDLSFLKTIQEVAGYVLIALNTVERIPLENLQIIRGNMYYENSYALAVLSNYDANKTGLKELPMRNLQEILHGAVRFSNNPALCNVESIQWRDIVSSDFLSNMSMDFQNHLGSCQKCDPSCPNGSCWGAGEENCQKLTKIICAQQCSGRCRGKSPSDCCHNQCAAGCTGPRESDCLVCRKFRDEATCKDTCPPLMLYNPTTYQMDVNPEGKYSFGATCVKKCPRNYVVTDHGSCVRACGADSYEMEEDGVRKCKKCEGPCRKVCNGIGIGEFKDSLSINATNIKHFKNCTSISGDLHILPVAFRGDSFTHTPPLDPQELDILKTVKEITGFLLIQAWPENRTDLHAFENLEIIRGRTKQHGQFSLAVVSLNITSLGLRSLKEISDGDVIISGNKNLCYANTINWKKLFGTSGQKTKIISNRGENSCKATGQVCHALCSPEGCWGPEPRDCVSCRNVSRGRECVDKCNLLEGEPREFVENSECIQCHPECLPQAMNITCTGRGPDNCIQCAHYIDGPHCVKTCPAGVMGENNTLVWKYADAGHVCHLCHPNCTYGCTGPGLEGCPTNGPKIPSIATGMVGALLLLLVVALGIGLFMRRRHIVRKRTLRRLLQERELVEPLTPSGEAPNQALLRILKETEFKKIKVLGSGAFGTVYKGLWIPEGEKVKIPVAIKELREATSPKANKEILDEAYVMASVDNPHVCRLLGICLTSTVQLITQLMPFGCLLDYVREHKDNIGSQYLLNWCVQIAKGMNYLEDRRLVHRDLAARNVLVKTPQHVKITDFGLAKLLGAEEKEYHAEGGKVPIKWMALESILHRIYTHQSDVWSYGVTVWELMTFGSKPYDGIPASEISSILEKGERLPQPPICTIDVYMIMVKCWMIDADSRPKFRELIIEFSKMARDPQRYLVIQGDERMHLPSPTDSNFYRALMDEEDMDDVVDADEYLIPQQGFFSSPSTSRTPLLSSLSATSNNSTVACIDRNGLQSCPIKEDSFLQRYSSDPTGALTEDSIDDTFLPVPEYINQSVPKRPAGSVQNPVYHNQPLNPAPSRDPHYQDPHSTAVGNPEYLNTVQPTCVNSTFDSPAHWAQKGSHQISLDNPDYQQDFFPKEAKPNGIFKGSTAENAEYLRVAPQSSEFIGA
# Src kinase, sequence (P12931 whole entry): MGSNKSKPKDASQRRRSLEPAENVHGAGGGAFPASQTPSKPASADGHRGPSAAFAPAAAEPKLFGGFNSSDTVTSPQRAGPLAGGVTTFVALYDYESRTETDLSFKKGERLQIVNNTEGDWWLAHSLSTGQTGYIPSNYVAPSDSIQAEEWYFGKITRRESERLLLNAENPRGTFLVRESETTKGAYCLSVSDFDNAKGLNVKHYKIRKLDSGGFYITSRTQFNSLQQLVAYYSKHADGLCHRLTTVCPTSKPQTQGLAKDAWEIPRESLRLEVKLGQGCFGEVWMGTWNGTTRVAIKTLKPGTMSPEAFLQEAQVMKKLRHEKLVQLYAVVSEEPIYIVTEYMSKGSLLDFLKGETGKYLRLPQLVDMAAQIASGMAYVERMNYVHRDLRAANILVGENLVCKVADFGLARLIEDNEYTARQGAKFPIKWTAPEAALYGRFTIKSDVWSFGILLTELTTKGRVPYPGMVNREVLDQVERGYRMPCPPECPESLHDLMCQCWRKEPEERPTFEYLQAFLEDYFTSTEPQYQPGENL
# Abl, sequence (P00519 whole entry): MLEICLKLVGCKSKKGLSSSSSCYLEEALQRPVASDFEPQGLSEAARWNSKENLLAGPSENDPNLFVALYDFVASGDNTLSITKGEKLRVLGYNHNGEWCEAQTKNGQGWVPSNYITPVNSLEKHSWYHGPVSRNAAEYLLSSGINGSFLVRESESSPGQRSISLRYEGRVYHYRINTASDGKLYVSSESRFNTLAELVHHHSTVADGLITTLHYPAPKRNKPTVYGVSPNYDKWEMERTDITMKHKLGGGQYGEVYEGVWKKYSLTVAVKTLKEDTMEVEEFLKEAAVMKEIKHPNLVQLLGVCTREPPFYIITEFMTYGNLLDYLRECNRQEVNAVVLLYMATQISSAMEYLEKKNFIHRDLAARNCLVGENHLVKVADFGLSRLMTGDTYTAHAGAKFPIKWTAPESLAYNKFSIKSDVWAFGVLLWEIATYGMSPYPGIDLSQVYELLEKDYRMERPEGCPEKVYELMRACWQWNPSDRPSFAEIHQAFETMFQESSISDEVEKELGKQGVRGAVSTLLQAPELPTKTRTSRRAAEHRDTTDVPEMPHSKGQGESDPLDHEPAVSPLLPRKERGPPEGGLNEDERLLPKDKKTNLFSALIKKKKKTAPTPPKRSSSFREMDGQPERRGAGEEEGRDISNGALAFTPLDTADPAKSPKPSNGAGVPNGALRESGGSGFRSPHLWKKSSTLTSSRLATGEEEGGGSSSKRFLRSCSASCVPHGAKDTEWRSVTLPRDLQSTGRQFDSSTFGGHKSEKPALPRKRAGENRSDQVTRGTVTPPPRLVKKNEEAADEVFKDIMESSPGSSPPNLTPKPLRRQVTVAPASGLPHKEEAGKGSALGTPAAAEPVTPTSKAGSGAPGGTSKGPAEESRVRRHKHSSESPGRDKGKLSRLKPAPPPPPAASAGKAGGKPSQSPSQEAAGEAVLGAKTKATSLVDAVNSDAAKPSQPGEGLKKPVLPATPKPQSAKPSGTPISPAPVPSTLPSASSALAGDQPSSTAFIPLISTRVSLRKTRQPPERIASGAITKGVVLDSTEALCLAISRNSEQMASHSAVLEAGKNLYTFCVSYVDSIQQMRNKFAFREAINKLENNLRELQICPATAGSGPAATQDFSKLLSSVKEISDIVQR
# Ret kinase, sequence (P07949 29-1114): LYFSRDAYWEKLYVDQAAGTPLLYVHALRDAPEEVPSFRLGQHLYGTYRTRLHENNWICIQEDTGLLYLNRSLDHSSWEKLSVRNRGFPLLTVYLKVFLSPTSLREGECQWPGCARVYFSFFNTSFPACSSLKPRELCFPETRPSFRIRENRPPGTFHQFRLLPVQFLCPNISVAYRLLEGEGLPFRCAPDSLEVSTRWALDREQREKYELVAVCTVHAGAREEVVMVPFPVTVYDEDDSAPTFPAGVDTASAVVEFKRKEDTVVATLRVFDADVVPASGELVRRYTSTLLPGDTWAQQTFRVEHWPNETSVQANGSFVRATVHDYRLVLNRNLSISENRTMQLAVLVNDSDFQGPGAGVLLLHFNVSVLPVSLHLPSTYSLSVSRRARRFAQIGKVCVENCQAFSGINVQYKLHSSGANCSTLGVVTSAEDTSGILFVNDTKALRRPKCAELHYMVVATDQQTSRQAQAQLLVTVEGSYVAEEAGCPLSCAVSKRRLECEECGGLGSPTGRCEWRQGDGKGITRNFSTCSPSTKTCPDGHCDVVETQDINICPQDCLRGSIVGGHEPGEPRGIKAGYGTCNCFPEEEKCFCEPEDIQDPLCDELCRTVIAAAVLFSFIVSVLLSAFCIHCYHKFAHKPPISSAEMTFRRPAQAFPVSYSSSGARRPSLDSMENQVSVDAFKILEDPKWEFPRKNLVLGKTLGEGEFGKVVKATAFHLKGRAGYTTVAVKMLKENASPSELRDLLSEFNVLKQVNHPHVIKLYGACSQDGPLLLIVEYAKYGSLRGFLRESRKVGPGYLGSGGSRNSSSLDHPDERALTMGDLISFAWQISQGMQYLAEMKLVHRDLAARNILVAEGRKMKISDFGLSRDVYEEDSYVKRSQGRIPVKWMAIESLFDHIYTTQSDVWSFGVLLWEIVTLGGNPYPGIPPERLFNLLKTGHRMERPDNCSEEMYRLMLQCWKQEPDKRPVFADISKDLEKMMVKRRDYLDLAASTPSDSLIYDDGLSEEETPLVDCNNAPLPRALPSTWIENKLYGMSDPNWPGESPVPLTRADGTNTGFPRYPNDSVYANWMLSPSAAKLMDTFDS
Structure (SMILES),IC50 (Src kinase; Src IC50 (nM)),IC50 (Ret kinase),further results
"COc1ccc(C)c(-c2c(Cl)n(C(C)(C)C)c3ncnc(N)c23)c1 (atropisomer, axis not shown; (Ra)) [(Ra)-1]",4550 nM,1580 nM,–
"COc1ccc(-c2c(Cl)n(C(C)(C)C)c3ncnc(N)c23)c(C)c1 (atropisomer, axis not shown; (Ra)) [(Ra)-2]",–,1870 nM,IC50 (Src kinase; read-out: Src IC50): > 10000 nM
"COc1ccc(-c2c(C)n(C(C)(C)C)c3ncnc(N)c23)c(C)c1 (atropisomer, axis not shown; (Ra)) [(Ra)-7]",3320 nM,450 nM,–
"Cc1c(-c2cccc3ccccc23)c2c(N)ncnc2n1C(C)(C)C (atropisomer, axis not shown; (Ra)) [(Ra)-10]",5570 nM,282 nM,–
"Cc1c(-c2cccc3c2CCCC3)c2c(N)ncnc2n1C(C)(C)C (atropisomer, axis not shown; (Ra)) [(Ra)-13]",> 10000 nM,> 10000 nM,–
"COc1ccc(C)c(-c2c(Cl)n(C(C)(C)C)c3ncnc(N)c23)c1 (atropisomer, axis not shown; (Sa)) [(Sa)-1]",4090 nM,2240 nM,–
"COc1ccc(-c2c(Cl)n(C(C)(C)C)c3ncnc(N)c23)c(C)c1 (atropisomer, axis not shown; (Sa)) [(Sa)-2]",> 10000 nM,3000 nM,–
"COc1ccc(Cl)c(-c2c(Cl)n(C(C)(C)C)c3ncnc(N)c23)c1 (single isomer, unassigned) [2e-(R), 7-(tert-butyl)-6-chloro-5-(2-chloro-5-methoxyphenyl)-7H-pyrrolo[2,3-d]pyrimidin-4-amine]",–,–,"IC50 of compound Kinase/IC50 of compound Yes (Yes): 1; S(40%): number of kinases inhibited greater than 40% divided by number of kinases tested (including Src) ([1]; 1000 nM): 0.11; S(40%): number of kinases inhibited greater than 40% divided by number of kinases tested (including Src) ([1]; 5000 nM): 0.44; Inhibited % (n/18) of tyrosine kinases ([1]; share of the 18 tyrosine kinases inhibited, concentration not printed in Table 3): (R): Inhibited 11% (2/18); IC50 of compound Kinase/IC50 of compound Yes (Src kinase): 6.22; IC50 of compound Kinase/IC50 of compound Yes (EGFR): >10.0; IC50 of compound Kinase/IC50 of compound Yes (Ret kinase): 2.07; augmentation/increase of 5's inherent selectivity (Ret kinase; Ret versus Abl and Src): 4 fold; IC50 (Abl): ≥ 10 µM; IC50 of compound Kinase/IC50 of compound Yes (Abl): 10.0"
"COc1cc(-c2c(Cl)n(C(C)(C)C)c3ncnc(N)c23)c(Cl)cc1C (single isomer, unassigned) [(Ra)-3]",> 10000 nM,7070 nM,–
"COc1ccc(Cl)c(-c2c(C)n(C(C)C)c3ncnc(N)c23)c1 (single isomer, unassigned) [(Ra)-4]",1330 nM,699 nM,–
"COc1ccc(C)c(-c2c(C)n(C(C)(C)C)c3ncnc(N)c23)c1 (single isomer, unassigned) [(Ra)-5]",6370 nM,731 nM,–
"COc1ccc(Cl)c(-c2c(Br)n(C(C)(C)C)c3ncnc(N)c23)c1 (single isomer, unassigned) [(Ra)-6]",–,1500 nM,–
"COc1ccc(-c2c(CN)n(C(C)(C)C)c3ncnc(N)c23)c(C)c1 (single isomer, unassigned) [(Ra)-8]",5290 nM,773 nM,–
"Cc1c(-c2cccc3ccccc23)c2c(N)ncnc2n1C(C)C (single isomer, unassigned) [(Ra)-9]",1370 nM,34 nM,–
"Cc1c(-c2cncc3ccccc23)c2c(N)ncnc2n1C(C)(C)C (single isomer, unassigned) [(Ra)-12]",7450 nM,282 nM,–
"COc1cc(-c2c(Cl)n(C(C)(C)C)c3ncnc(N)c23)c(Cl)cc1C (single isomer, unassigned) [(Sa)-3]",918 nM,4810 nM,–
"COc1ccc(Cl)c(-c2c(Cl)n(C3CCCC3)c3ncnc(N)c23)c1 [Compound 1e, 6-chloro-5-(2-chloro-5-methoxyphenyl)-7-cyclopentyl-7H-pyrrolo[2,3-d]pyrimidin-4-amine]",–,–,Barrier to Rotation [2]: 27.2 kcal/mol; kobs [2]: 1.24E−04
"COc1ccc(Br)c(-c2c(Cl)n(C3CCCC3)c3ncnc(N)c23)c1 [Compound 1f, 5-(2-bromo-5-methoxyphenyl)-6-chloro-7-cyclopentyl-7H-pyrrolo[2,3-d]pyrimidin-4-amine]",–,–,Barrier to Rotation [2]: 29.0 kcal/mol; kobs [2]: 1.01E−05
"COc1ccc(Cl)c(-c2c(Cl)n(C(C)(C)C)c3ncnc(N)c23)c1 [Compound 2e, 7-(tert-butyl)-6-chloro-5-(2-chloro-5-methoxyphenyl)-7H-pyrrolo[2,3-d]pyrimidin-4-amine]",–,–,Barrier to Rotation [2]: 28.6 kcal/mol; kobs [2]: 3.27E−05
"COc1ccc(Br)c(-c2c(Cl)n(C(C)(C)C)c3ncnc(N)c23)c1 [Compound 2f, 5-(2-bromo-5-methoxyphenyl)-7-(tert-butyl)-6-chloro-7H-pyrrolo[2,3-d]pyrimidin-4-amine]",–,–,Barrier to Rotation [2]: 30.4 kcal/mol; kobs [2]: 2.68E−05
"COc1cccc(-c2cn(C(C)(C)C)c3ncnc(N)c23)c1 [Compound 5, reference compound]",–,–,"relative selectivities favoring Yes (IC50 kinase/IC50 YES) over Ret, Src, and Abl (Yes): 1.4-2.65 fold; IC50 of compound Kinase/IC50 of compound Yes (Yes): 1; S(40%): number of kinases inhibited greater than 40% divided by number of kinases tested (including Src) ([1]; 200 nM): 0.44; activity for the tyrosine kinase panel tested ([1]; 200 nM and 1000 nM): near pan activity; S(40%): number of kinases inhibited greater than 40% divided by number of kinases tested (including Src) ([1]; 1000 nM): 0.72; IC50 of compound Kinase/IC50 of compound Yes (Src kinase): 1.64; IC50 of compound Kinase/IC50 of compound Yes (EGFR): 7 and 6.96; IC50 of compound Kinase/IC50 of compound Yes (Ret kinase): 1.4; IC50 of compound Kinase/IC50 of compound Yes (Abl): 2.65"

# Second part, led by results:
IC50 (Src kinase; Src IC50 (nM)),IC50 (Ret kinase),Structure (SMILES),further results
4750 nM,918 nM,"COc1ccc(-c2c(C)n(C(C)(C)C)c3ncnc(N)c23)c(C)c1 (atropisomer, axis not shown; (Sa)) [(Sa)-7]",–
4560 nM,2860 nM,"Cc1ccc(-c2c(C)n(C(C)C)c3ncnc(N)c23)c2ccccc12 (atropisomer, axis not shown; (Sa)) [(Sa)-11]",–
406 nM,2270 nM,"COc1ccc(Cl)c(-c2c(C)n(C(C)C)c3ncnc(N)c23)c1 (single isomer, unassigned) [(Sa)-4]",–
4100 nM,2500 nM,"COc1ccc(C)c(-c2c(C)n(C(C)(C)C)c3ncnc(N)c23)c1 (single isomer, unassigned) [(Sa)-5]",–
–,8000 nM,"COc1ccc(Cl)c(-c2c(Br)n(C(C)(C)C)c3ncnc(N)c23)c1 (single isomer, unassigned) [(Sa)-6]",–
> 10000 nM,9070 nM,"COc1ccc(-c2c(CN)n(C(C)(C)C)c3ncnc(N)c23)c(C)c1 (single isomer, unassigned) [(Sa)-8]",–
> 10000 nM,8810 nM,"Cc1c(-c2cccc3ccccc23)c2c(N)ncnc2n1C(C)C (single isomer, unassigned) [(Sa)-9]",–
> 10000 nM,9560 nM,"Cc1c(-c2cccc3ccccc23)c2c(N)ncnc2n1C(C)(C)C (single isomer, unassigned) [(Sa)-10]",–
316 nM,17 nM,"Cc1c(-c2cncc3ccccc23)c2c(N)ncnc2n1C(C)(C)C (single isomer, unassigned) [(Sa)-12]",–

# From US10934300B2, “Atropisomerism for enhanced kinase inhibitor selectivity” (San Diego State University Foundation, priority 2017, dated 2021)
